From US4473554A, “Bestatin-related compounds as immunopotentiator” (Zaidan Hojin Biseibutsu Kagaku Kenkyu Kai, priority 1982, dated 1984) come the findings set out here.

The structures appear in SMILES notation. ≈ marks a conversion by molar mass, not a printed value.

The target of one data set is T1, aminopeptidase B (Rattus norvegicus, UniProt O09175).
T1 sequence (O09175 1-650): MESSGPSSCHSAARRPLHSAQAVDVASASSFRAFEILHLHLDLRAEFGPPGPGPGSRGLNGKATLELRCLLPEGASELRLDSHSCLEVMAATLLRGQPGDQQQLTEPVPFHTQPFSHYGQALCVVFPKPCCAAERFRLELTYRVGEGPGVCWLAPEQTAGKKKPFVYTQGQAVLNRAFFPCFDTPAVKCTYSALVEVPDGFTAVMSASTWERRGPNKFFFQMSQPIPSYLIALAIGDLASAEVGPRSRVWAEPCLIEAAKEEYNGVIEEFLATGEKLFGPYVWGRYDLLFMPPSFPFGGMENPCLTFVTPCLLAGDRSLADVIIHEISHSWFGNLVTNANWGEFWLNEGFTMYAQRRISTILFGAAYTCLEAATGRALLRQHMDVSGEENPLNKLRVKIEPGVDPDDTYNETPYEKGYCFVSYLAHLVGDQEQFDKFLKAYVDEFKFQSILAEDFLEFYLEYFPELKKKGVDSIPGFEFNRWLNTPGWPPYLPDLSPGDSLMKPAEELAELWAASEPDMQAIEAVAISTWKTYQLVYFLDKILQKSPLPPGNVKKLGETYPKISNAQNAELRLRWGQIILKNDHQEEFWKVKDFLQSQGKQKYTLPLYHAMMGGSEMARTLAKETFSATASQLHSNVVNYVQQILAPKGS
In words: aminopeptidase B-inhibiting activity (modified Hopsu method, arginine β-naphthylamide substrate). In kind it is biochemical. Particulars: 37° C., pH 7.0, 30 minutes. Here is the method: The aminopeptidase B-inhibiting activity was determined according to a modification of the method of V. K. Hopsu et al. described in the "Archives of Biochemistry and Biophysics" Vol. 114, 557 (1966). Thus, a mixture of 0.8 ml of 0.1 mM of (S)-arginine β-naphthylamide and 1.0 ml of 0.1M Tris-hydrochloride buffer (pH 7.0) was admixed with 0.7 ml of 0.1M Tris-hydrochloride buffer (pH 7.0) containing the test compound and then heated at 37° C. for 3 minutes. […] After the reaction at 37° C. for 30 minutes, the reaction solution was admixed with 0.6 ml of 0.1M acetate buffer (pH 4.2) containing 1.0 mg/ml of diazonium salt of o-aminoazotoluene (Garnet GBC) and 1.0% of a surfactant "Tween" 20 (a registered trademark) to stop the enzymatic reaction and then allowed to stand at ambient temperature for 15 minutes. After this, absorbance (a) at 525 nm of the reaction solution was measured by spectrophotometer. For the control, the above procedure was repeated without the test compound and the adsorbence (b) was measured. Percentages for inhibition to aminopeptidase B were calculated according to the equation: [formula] Inhibition percentages at various concentrations of the test compound were measured, and from the values of inhibition percentages measured 50% Inhibition Concentration (IC50) was evaluated.

The test system of data set [1] is D.T.H. response in mice immunized with sheep red blood cell (SRBC). The experiment in a line: Delayed Type Hypersensitivity (D.T.H.) footpad test in mice immunized with SRBC, Example 2. In kind it is in vivo, mouse. Particulars: CDF1 mice, control = 100. Here is the method: This Example describes the tests for evaluation of the immunopotentiating activity of the new compound of this invention.
A suspension of 10^8 sheep red blood cells in 0.05 ml of physiological saline was subcutaneously injected at the time of immunization into the right hind footpad of each CDF1 -mouse under test (female, 8 weeks-aged, 5 mice in each group) to establish D.T.H. Simultaneously to the immunization, […] prepared by dissolving the test compound in physiological saline and then filtering the solution by a micropore filter (pore diameter: 0.22 micrometers). Four days later, 10^8 SRBC were subcutaneously injected into the left […] footpad of each test mouse for elicitation of the D.T.H. response. 24 Hours after the elicitating injection, the increased thickness of the left hind footpad was measured with calipers to estimate the degree of swelling in the footpad. The swelling degree is expressed in term of the values calculated by the equation: [formula] The degree of swelling serves to evaluate the degree of cell-mediated immunity involved. For comparison, a suspension of bestatin dispersed in water was tested in the same way as above.

Data set [2] relates to D.T.H. response in tumor-bearing (Sarcoma 180) mice immunized with SRBC. In words: D.T.H. footpad test in Sarcoma 180 tumor-bearing mice immunized with SRBC, Example 23. It counts as in vivo, mouse. The note with it: Sarcoma 180-bearing CDF1 mice. Here is the method:
This Example describes the tests for evaluation of the immunopotentiating activity of the new compound of this invention. Thus, the effect of the new compound of cell-mediated immunity was tested according to a known technique of Delayed Type Hypersensitivity (D.T.H.) (see P. H. Lagrange et al. "J. Exp. Med." Vol. 139, 1529-1539 (1974)) using tumor-bearing mice which had been immunized with sheep red blood cell (SRBC) as antigen as inoculated into the footpad of the mice.
Thus, a suspension of 10^8 sheep red blood cells in 0.05 ml of physiological saline was subcutaneously injected at the time of immunization into the right hind footpad of each CDF1 -mouse under test (female, 8 weeks-aged, 6 mice in each group) to which 10^6 cells of the tumor cell, Sarcoma 180 had been inoculated intraperitoneally.
On the same day as the day when the immunization with SRBC was effected, as well as on the subsequent, consecutive four days, the mouse under test were then treated by intraperitoneal administration of 0.05 mg/kg, 0.5 mg/kg or 5 mg/kg per day of the test compound as the solution which was prepared by dissolving the test compound in physiological saline and then filtering the solution by a micropore filter (pore diameter: 0.22 micrometers). Two days after the immunization with SRBC, 10^8 SRBC were subcutaneously injected into the left hind footpad of each test mouse for elicitation of the D.T.H. responde. 24 Hours after the elicitating injection, the increased thickness of the left hind footpad was measured with calipers to estimate the degree of swelling in the footpad. The swelling degree is expressed in term of the values calculated by the equation: [formula] The degree of swelling serves to evaluate the degree of cell-mediated immunity involved. For comparison, a suspension of bestatin dispersed in water was tested in the same way as above.

Another data set concerns ICR-strain mice. The experiment in a line: acute toxicity, intraperitoneal, ICR-strain mice. It counts as in vivo, mouse. The note with it: dosage of 100 mg/kg. From the text:
In order to estimate the acute toxicity of the compound of the formula (VIII) or (IIId), some of the test compound was intraperitoneally given to ICR-strain mice (in groups each consisting of 6 mice, male, 5 weeks-aged, average body weight 20 g.), when all the tested mice tolerated intraperitoneal administration of (2S,3R)-APHA; (2S)-2-N-[(2'S,3'R)-3'-amino-2'-hydroxy-4'-phenyl-butanoyl]amino-4-methyl- pentanol; (2S)-2-N-[(2'S,3'R)-3'-amino-2'-hydroxy-4'-phenylbutanoyl-(S)-leucyl]amino-4-methyl-pentanol; (2S,3R)-3-amino-2-hydroxy-4-phenylbutanoyl-(S)-leucyl-(S)-leucine; (2S,3R)-3-amino-2-hydroxy-4-phenyl-butanoyl-(S)-leucyl-(S)-arginine; (2S,3R)-3-amino-2-hydroxy-4-phenylbutanoyl-(S)-leucyl-(S)-asparagine; (2R,3R)-3-amino-2-hydroxy-4-phenylbutanoyl-(S)-leucyl-(R)-asparagine; and (2S,3R)-3-amino-2-hydroxy-4-phenylbutanoyl-(S)-leucyl-(R)-arginine at a dosage of 100 mg/kg.

Data set [3] concerns D.T.H. response in mice immunized with SRBC as antigen. The experiment in a line: D.T.H. footpad test in mice immunized with SRBC, Examples 3-6 (dosages per mouse). In kind it is in vivo. The note with it: for Degree of swelling: control = 100. Here is the method: The effect of (2S,3R)-AHPA on cell-mediated immunity was tested in the same way in Example 2, namely according to the D.T.H. technique using mice immunized with sheep red blood cell as antigen. Thus, a suspension of 10^8 sheep red blood cells in 0.05 ml of physiological saline were subcutaneously injected at the time of immunization into the right hind footpad of each CDF1 -mouse under test (female, 8 weeks-aged, 5 mice in each group) to establish D.T.H. […] The degree of swelling was evaluated. By way of comparison, bestatin was tested in the same way as above. […] The effect of (2S,3R)-AHPA on the D.T.H. response was estimated in the same manner as in the above procedure (A) of Example 3 by orally administering 1 mcg/mouse, 0.1 mcg/mouse or 0.01 mcg/mouse of (2S,3R)-AHPA to each mouse under test. […] The effect of the mode of administering (2S,3R)-AHPA on the D.T.H. response was estimated in the same manner as in the procedure (A) of Example 3, except that the test compound (as aqueous solution) was injected intraperitoneally in stead of being given orally.

`CC(C)C[C@H](NC(=O)[C@@H](O)[C@H](N)Cc1ccccc1)C(=O)N[C@@H](CCCNC(=N)N)C(=O)O` [Compound No. 5, (2S,3R)-3-amino-2-hydroxy-4-phenyl-butanoyl-(S)-leucyl-(S)-arginine] displayed an IC50 against aminopeptidase B of 0.11 µg/mL (≈ 0.237 µM). In addition, the results for the Degree of swelling in data set [1] (oral 0.5 mg/kg at immunization) and in data set [2] (intraperitoneal 5 mg/kg/day) were 135% and 147%, respectively. Further, the solubility in water entry in the data set “solubility in water” was “soluble in water”.

`CC(C)C[C@H](NC(=O)[C@@H](O)[C@H](N)Cc1ccccc1)C(=O)N[C@H](CCCNC(=N)N)C(=O)O` [Compound No. 10] registered an IC50 against aminopeptidase B of 0.39 µg/mL (≈ 0.839 µM). The Degree of swelling in data set [1] (oral 0.5 mg/kg at immunization) is on record as 134%; in data set [2] (intraperitoneal 0.5 mg/kg/day), 155%. In the data set with ICR-strain mice, the “acute toxicity: tolerance of intraperitoneal administration” value is recorded as “tolerated”.

Compound `CC(C)C[C@H](NC(=O)[C@@H](O)[C@H](N)Cc1ccccc1)C(=O)N[C@@H](CC(N)=O)C(=O)O` [Compound No. 11, (2S,3R)-3-amino-2-hydroxy-4-phenylbutanoyl-(S)-leucyl-(S)-asparagine] came in with an IC50 against aminopeptidase B of 22.4 µg/mL (≈ 53 µM). Moreover, the Degree of swelling amounted to 128% in data set [1] (oral 0.5 mg/kg at immunization) and 155% in data set [2] (intraperitoneal 0.05 mg/kg/day).

As for `CC(C)C[C@H](NC(=O)[C@@H](O)[C@H](N)Cc1ccccc1)C(=O)N[C@H](CC(N)=O)C(=O)O` [Compound No. 12, (2S,3R)-3-amino-2-hydroxy-4-phenylbutanoyl-(S)-leucyl-(R)-asparagine], the IC50 against aminopeptidase B stood at 4.7 µg/mL (≈ 11.1 µM). For the same compound, the results for the Degree of swelling in data set [1] (oral 0.5 mg/kg at immunization) and in data set [2] (intraperitoneal 0.5 mg/kg/day) were 133% and 157%, respectively. The “acute toxicity: tolerance of intraperitoneal administration” value in the data set with ICR-strain mice is “tolerated”.

As for `CC(C)C[C@H](NC(=O)[C@H](CC(C)C)NC(=O)[C@@H](O)[C@H](N)Cc1ccccc1)C(=O)O` [Compound No. 6, (2S,3R)-3-amino-2-hydroxy-4-phenylbutanoyl-(S)-leucyl-(S)-leucine], the IC50 against aminopeptidase B was found to be 0.20 µg/mL (≈ 0.474 µM). In addition, the values for the Degree of swelling in data set [1] (oral 0.5 mg/kg at immunization) and in data set [2] (intraperitoneal 0.5 mg/kg/day) were 120% and 152%, respectively.

`CC(C)C[C@H](NC(=O)[C@@H](O)[C@H](N)Cc1ccccc1)C(=O)O` [Bestatin, (2S, 3R)-3-amino-2-hydroxy-4-phenylbutanoyl-(S)-leucine] displayed an IC50 at aminopeptidase B of 0.03 µg/mL (≈ 0.0973 µM). Also, the Degree of swelling in data set [1] (oral 0.05 mg/kg at immunization) is given as 120-130%; in data set [1] (oral 0.5 mg/kg at immunization), 140-150%; in data set [3] (Table 3, oral 0.1 mcg/mouse), 118%; in data set [3] (Table 3, oral 1 mcg/mouse), 130%; in data set [3] (Table 3, oral 10 mcg/mouse) it was 152%; in data set [3] (Table 4, oral 1 mcg/mouse), 133%. The Degree of swelling in data set [3] (Table 7, oral 1 mcg/mouse) is given as 133%; in data set [3] (Table 8, oral 1 mcg/mouse), 121%; in data set [2] (intraperitoneal 5 mg/kg/day) it was 130%. Also, the “Increase in thickness of footpad (± S.D.)” value came to 9.3 ± 2.70 × 0.1 mm in data set [3] (Table 3, oral 0.1 mcg/mouse); 10.3 ± 0.96 × 0.1 mm in data set [3] (Table 3, oral 1 mcg/mouse); 12.0 ± 1.25 × 0.1 mm in data set [3] (Table 3, oral 10 mcg/mouse); 10.8 ± 1.08 × 0.1 mm in data set [3] (Table 4, oral 1 mcg/mouse); 11.6 ± 0.91 × 0.1 mm in data set [3] (Table 7, oral 1 mcg/mouse). In addition, the “Degree of swelling, Intraperitoneal injection” value in data set [3] (Table 5, intraperitoneal 1 mcg/mouse) stood at 128%. The “Degree of swelling, Oral administration” value in data set [3] (Table 5, oral 1 mcg/mouse) worked out at 133%. Moreover, in data set [3] (Table 8, oral 1 mcg/mouse), the “Increase in thickness of footpad (+ S.D.)” value stood at 10.3 ± 1.36 × 0.1 mm. In addition, the solubility in water entry in “solubility in water” is listed as “sparingly soluble in water”.
